Results from patent publication US9447086B2, “6-amino acid heteroaryldihydropyrimidines for the treatment and prophylaxis of hepatitis B virus infection” (priority 2012, dated 2016).
Where two headings read alike, the source gives them in different places. Marks after values point to notes of the source that are not given here.

Key:
HBV [1] = experiment: Anti-HBV activity in vitro in HepG2.2.15 cells (extracellular HBV DNA by qPCR); assay type: cell-based, Hepatitis B virus; details: HepG2.2.15 cells, in-house data, read-out: EC50
Outline: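 Supernatant HBV DNA was measured by qPCR after viral DNA extraction. Samples came from 5-day cultures of HepG2.2.15 cells, an HBV-genome-transfected HepG2 line, exposed to half-log compound dilutions in medium containing 0.5% DMSO.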

[2] = Cytotoxicity (CC50) in HepDE19 cells, CCK-8 cell viability; assay type: cell-based; details: human, HepDE19 cells; read-out: CC50
Outline: (§1)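 HBV-transfected HepG2-derived HepDE19 cells grown in DMEM-F12 with 10% FBS and G418. Viability read five days after treatment by CCK-8, 2 h at 37 °C, absorbance at 450 and 630 nm.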

HBV [3] = experiment: Selectivity index (CC50 value/EC50 value); assay type: cell-based, Hepatitis B virus
Outline: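 Ratio of CC50 to EC50, measuring antiviral activity against HBV relative to cytotoxicity in vitro; higher values indicate greater separation between viral inhibition and cell death.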

[4] = Mouse SDPK (single dose PK in male ICR mouse, plasma and liver); assay type: in vivo; details: male ICR mice; for bioavailability / AUC(0-inf) / clearance: mouse; for bioavailability: 1 mg/kg IV, 3 mg/kg PO, read-out: F (bioavailability); for clearance: read-out: Plasma Cl (IV)
Procedure: The single dose PK in male ICR mouse was performed to assess their pharmacokinetic properties. Two groups of animals were dosed via either bolus intravenous (IV) or oral gavage (PO) of the respective compound. The animals for oral administration were fasted overnight prior to dosing and food was resumed 4 hours postdose. Blood samples (approximately 400 μL) were collected via cardiac puncture after euthanasia by carbon dioxide inhalation at 2 mins, 5 mins, 15 mins, 30 mins, 1 h, 2 hrs, 4 hrs, 6 hrs, 8 hrs, and 24 hrs postdose for IV group, and at 5 mins, 15 mins, 30 mins, 1 h, 2 hrs, 4 hrs, 6 hrs, 8 hrs, and 24 hrs postdose for PO group. Blood samples were placed into tubes containing sodium heparin and centrifuged at 8000 rpm for 6 minutes at 4° C. to separate plasma from the samples. Following centrifugation, the resulting plasma was transferred to clean tubes for bioanalysis on LC/MS/MS. The pharmacokinetic parameters were calculated using non-compartmental module of WinNonlin® Professional 5.2.

[5] = Metabolic stability study in human microsome; assay type: in vitro ADME
Outline: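 Depletion of 1 μM compound followed by LC-MS/MS over 0–30 min (0, 3, 6, 9, 15, 30 min) after methanol quench. Incubations at 37 °C, pH 7.4 phosphate buffer, 0.5 mg/mL microsomal protein, with NADPH (1 mM) or a regenerating system as cofactor; controls lacked cofactor.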

[6] = Lyophilisation solubility assay (Lysa); assay type: physicochemical; details: phosphate buffer, pH 6.5, aqueous buffer, thermodynamic from solid
Outline: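 Solubility in μg/mL is read by UV or HPLC-UV on filtrate, neat and diluted 1/10. Before filtration, the residue from evaporated 10 mM DMSO stock was taken up in pH 6.5 0.05 M phosphate buffer, then stirred 1 h, shaken 2 h and stood overnight, in duplicate.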

HepDE19 cells = experiment: Cytotoxicity (CC50) in HepDE19 cells, CCK-8 cell viability; assay type: cell-based
Outline: as §1

HBV [7] = details: literature data, Deres K. et al. Science 2003, 893-896; cited from earlier work
[8] = literature data, Deres K. et al. Science 2003, 893-896; cited from earlier work
[9] = plasma, dose 1 mg/kg IV, read-out: Plasma AUC(0-∞) (IV)
[10] = plasma, dose 3 mg/kg PO, read-out: Plasma AUC(0-∞) (PO)

With `COC(=O)C1=C(CN2CC(F)(F)C[C@H]2C(=O)O)NC(c2nccs2)=N[C@H]1c1ccc(F)cc1Cl` [Example 2, (R)-6-((S)-2-Carboxy-4,4-difluoro-pyrrolidin-1-ylmethyl)-4-(2-chloro-4-fluoro-phenyl)-2-thiazol-2-yl-1,4-dihydro-pyrimidine-5-carboxylic acid methyl ester] the EC50 (HBV [1]; Hepatitis B virus) was 2.7 nM, the CC50 at 5 days [2] was 85000 nM and the “Selectivity index (CC50/EC50)” value (HBV [3]) was 31481. The “Liver AUC(0-∞) (PO)” value ([4]; dose 3 mg/kg PO) was 18000 ng·h/mL, the bioavailability ([4]; plasma) was 94% and the AUC(0-inf) [4, 9] was 995 ng·h/mL. For the same compound, the clearance ([4]; plasma, dose 1 mg/kg IV) was 17 mL/min/kg, the AUC(0-inf) [4, 10] was 2790 ng·h/mL and the “Human Hepatic Clearance” value [5] was 3.65 mL/min/kg. For the same compound, the solubility thermodynamic [6] was over 698 µg/mL.

For `COC(=O)C1=C(CN2CCOC[C@H]2C(=O)O)N=C(c2nccs2)N[C@H]1c1ccc(F)cc1Cl` [Example 5, (S)-4-[(R)-6-(2-Chloro-4-fluoro-phenyl)-5-methoxycarbonyl-2-thiazol-2-yl-3,6-dihydro-pyrimidin-4-ylmethyl]-morpholine-3-carboxylic acid], the CC50 (HepDE19 cells) was over 100000 nM, the “Liver AUC(0-∞) (PO)” value ([4]; dose 3 mg/kg PO) was 11800 ng·h/mL and the “Plasma AUC(0-∞) (PO)” value ([4]; plasma, dose 3 mg/kg PO) was 962 ng·h/mL. It also gave a bioavailability ([4]; plasma) of 37%, an AUC(0-inf) [4, 9] of 878 ng·h/mL and a clearance ([4]; plasma, dose 1 mg/kg IV) of 19 mL/min/kg. The “Human Hepatic Clearance” value [5] was 2.7 mL/min/kg and the solubility thermodynamic [6] was over 660 µg/mL.

With `COC(=O)C1=C(C)NC(c2ncc(F)cc2F)=N[C@H]1c1ccc(F)cc1Cl` [Bay 41-4109, reference compound] the EC50 (HBV [1]) was 87 nM, the “F (bioavailability)” value ([4]; plasma, 5 mg/kg IV, 30 mg/kg PO) was 21% and the “Plasma AUC(0-∞) (IV)” value ([4]; plasma, dose 5 mg/kg IV) was 1380 ng·h/mL. For the same compound, the “Plasma Cl (IV)” value ([4]; plasma, dose 5 mg/kg IV) was 60 mL/min/kg, the “Plasma AUC(0-∞) (PO)” value ([4]; plasma, dose 30 mg/kg PO) was 1740 ng·h/mL and the EC50 (HBV [7]) was 50 nM. For the same compound, the “F (bioavailability)” value [8] was “(31^1) %” and the “Plasma Cl (IV)” value [8] was “(67^1) mL/min/kg”.

With `COC(=O)C1=C(CN2CC(F)(F)C[C@H]2C(=O)O)NC(c2nc(C)cs2)=N[C@H]1c1ccc(F)cc1Cl` [Example 16, (R)-6-((S)-2-Carboxy-4,4-difluoro-pyrrolidin-1-ylmethyl)-4-(2-chloro-4-fluoro-phenyl)-2-(4-methyl-thiazol-2-yl)-1,4-dihydro-pyrimidine-5-carboxylic acid methyl ester] the EC50 (HBV [1]; Hepatitis B virus) was 2 nM, the CC50 at 5 days [2] was 30000 nM and the “Selectivity index (CC50/EC50)” value (HBV [3]) was 15000. The “Liver AUC(0-∞) (PO)” value ([4]; dose 3 mg/kg PO) was 35200 ng·h/mL, the bioavailability ([4]; plasma) was 69% and the AUC(0-inf) [4, 9] was 290 ng·h/mL. For the same compound, the clearance ([4]; plasma, dose 1 mg/kg IV) was 57 mL/min/kg, the AUC(0-inf) [4, 10] was 598 ng·h/mL and the “Human Hepatic Clearance” value [5] was 6.35 mL/min/kg. The solubility thermodynamic [6] was over 622 µg/mL.

With `O=C(OCC(F)(F)F)C1=C(CN2CCOC[C@H]2C(=O)O)NC(c2nccs2)=N[C@H]1c1ccc(F)cc1Cl` [Example 51, (S)-4-[(R)-6-(2-Chloro-4-fluoro-phenyl)-2-thiazol-2-yl-5-(2,2,2-trifluoro-ethoxycarbonyl)-3,6-dihydro-pyrimidin-4-ylmethyl]-morpholine-3-carboxylic acid] the EC50 (HBV [1]; Hepatitis B virus) was 13 nM, the CC50 (HepDE19 cells) was 27000 nM and the “Selectivity index (CC50/EC50)” value (HBV [3]) was 2117. For the same compound, the “Human Hepatic Clearance” value [5] was 0 mL/min/kg and the solubility thermodynamic [6] was over 695 µg/mL.
